Key:
GPR37 [1] = target: T1, GPR37 (Homo sapiens, UniProt O15354); assay: lipid overlay dot blot: ligand-coated PVDF membrane with lysates of HEK293T cells with and without GPR37
T1 sequence (O15354 27-613): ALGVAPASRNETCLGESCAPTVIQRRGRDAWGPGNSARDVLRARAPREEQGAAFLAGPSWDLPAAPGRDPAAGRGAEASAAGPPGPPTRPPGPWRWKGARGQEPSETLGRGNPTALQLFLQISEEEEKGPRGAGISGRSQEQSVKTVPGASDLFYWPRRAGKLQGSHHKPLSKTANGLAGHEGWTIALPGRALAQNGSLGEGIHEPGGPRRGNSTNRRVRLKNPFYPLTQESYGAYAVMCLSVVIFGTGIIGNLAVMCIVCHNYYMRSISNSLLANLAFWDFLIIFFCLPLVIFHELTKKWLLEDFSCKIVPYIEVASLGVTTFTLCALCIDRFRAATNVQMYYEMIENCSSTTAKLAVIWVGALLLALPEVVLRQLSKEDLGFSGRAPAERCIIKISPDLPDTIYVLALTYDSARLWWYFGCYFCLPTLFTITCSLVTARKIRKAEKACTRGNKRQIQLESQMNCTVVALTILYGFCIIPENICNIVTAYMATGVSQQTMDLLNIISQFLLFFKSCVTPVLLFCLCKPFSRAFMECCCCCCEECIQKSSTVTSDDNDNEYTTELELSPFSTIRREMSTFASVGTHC

GPR37 [2] = target: T1, GPR37; assay: Ca2+ imaging in HEK293T cells expressing human GPR37 versus mock; lipid overlay dot blot with GPR37-HEK293T lysate; type: cell-based

EC50 (GPR37 [2]) [nM]	SMILES	lipid overlay dot blot: ligand-coated PVDF membrane with lysates of HEK293T cell (GPR37 [1])
–	CC/C=C\C[C@H](O)\C=C/C=C/C=C/[C@H](O)C/C=C\C/C=C\CCC(=O)O [NPD1, neuroprotectin D1]	Lipid overlay assays further confirmed direct binding of PDX and NPD1 to GPR37
23.5	CC/C=C\C[C@H](O)/C=C/C=C\C=C\[C@@H](O)C/C=C\C/C=C\CCC(=O)O [PDX, Protectin DX]	–

Reference: paper PMC12807480, “Protectin DX resolves fracture-induced postoperative pain in mice via neuronal signaling and GPR37-activated macrophage efferocytosis” (The Journal of Clinical Investigation, 2026)
